Earlier results on one molecule are cited in patent US20180169002A1, “Skin Rejuvenation and Defense Systems and Methods” (Maple Mountain Group, Inc., priority 2015, published 2018).

The conditions of the data set: compared with glycerin.

Take `NC(=O)NCCO` [Hydroxyethyl Urea, Hydroxyethyl urea]: the moisturization efficacy entry was “comparable to the leading benchmark”.
